Reference: the NIST ThermoML archive (doi:10.1021/je060271a)
Values joined by “and” are separate entries in the source; they are usually repeats but may differ in a detail not shown here. Equal values may be shown once. Numbers after ± are expanded uncertainties.

Settings: Liquid, Vibrating tube method

CCCCC(=O)OCC(COC(=O)CCCC)(COC(=O)CCCC)COC(=O)CCCC [pentaerythritol tetrapentanoate]
Settings | mass density
323.15 K, 31189 kPa | 1015 ± 1.2 kg/m3
323.15 K, 31223 kPa | 1015.1 ± 1.2 kg/m3
323.15 K, 31256 kPa | 1015.1 ± 1.2 kg/m3
323.15 K, 31290 kPa | 1015.1 ± 1.2 kg/m3
323.15 K, 31330 kPa | 1015.1 ± 1.2 kg/m3
323.15 K, 31363 kPa | 1015 ± 1.2 kg/m3
323.15 K, 31397 kPa | 1015.2 ± 1.2 kg/m3
323.15 K, 31438 kPa | 1015.2 ± 1.2 kg/m3
323.15 K, 31473 kPa | 1015.2 ± 1.2 kg/m3
323.15 K, 31507 kPa | 1015.2 ± 1.2 kg/m3
323.15 K, 31540 kPa | 1015.3 ± 1.2 kg/m3
323.15 K, 31581 kPa | 1015.3 ± 1.2 kg/m3
323.15 K, 31615 kPa | 1015.4 ± 1.2 kg/m3
323.15 K, 31649 kPa | 1015.3 ± 1.2 kg/m3
323.15 K, 31689 kPa | 1015.3 ± 1.2 kg/m3
323.15 K, 31724 kPa | 1015.3 ± 1.2 kg/m3
323.15 K, 31758 kPa | 1015.3 ± 1.2 kg/m3
323.15 K, 31794 kPa | 1015.4 ± 1.2 kg/m3
323.15 K, 31834 kPa | 1015.5 ± 1.2 kg/m3
323.15 K, 31869 kPa | 1015.4 ± 1.2 kg/m3
323.15 K, 31914 kPa | 1015.4 ± 1.2 kg/m3
323.15 K, 31941 kPa | 1015.6 ± 1.2 kg/m3
323.15 K, 31982 kPa | 1015.4 ± 1.2 kg/m3
323.15 K, 32017 kPa | 1015.6 ± 1.2 kg/m3
323.15 K, 32052 kPa | 1015.6 ± 1.2 kg/m3
323.15 K, 32093 kPa | 1015.7 ± 1.2 kg/m3
323.15 K, 32128 kPa | 1015.6 ± 1.2 kg/m3
323.15 K, 32170 kPa | 1015.7 ± 1.2 kg/m3
323.15 K, 32206 kPa | 1015.7 ± 1.2 kg/m3
323.15 K, 32240 kPa | 1015.6 ± 1.2 kg/m3
323.15 K, 32283 kPa | 1015.7 ± 1.2 kg/m3
323.15 K, 32318 kPa | 1015.7 ± 1.2 kg/m3
323.15 K, 32354 kPa | 1015.8 ± 1.2 kg/m3
323.15 K, 32398 kPa | 1015.8 ± 1.2 kg/m3
323.15 K, 32434 kPa | 1015.8 ± 1.2 kg/m3
323.15 K, 32470 kPa | 1015.8 ± 1.2 kg/m3
323.15 K, 32513 kPa | 1015.7 ± 1.2 kg/m3
323.15 K, 32550 kPa | 1015.9 ± 1.2 kg/m3
323.15 K, 32586 kPa | 1015.9 ± 1.2 kg/m3
323.15 K, 32623 kPa | 1015.9 ± 1.2 kg/m3
323.15 K, 32666 kPa | 1016 ± 1.2 kg/m3
323.15 K, 32701 kPa | 1016 ± 1.2 kg/m3
323.15 K, 32745 kPa | 1015.9 ± 1.2 kg/m3
323.15 K, 32782 kPa | 1016.1 ± 1.2 kg/m3
323.15 K, 32820 kPa | 1016 ± 1.2 kg/m3
323.15 K, 32864 kPa | 1016.1 ± 1.2 kg/m3
323.15 K, 32902 kPa | 1016 ± 1.2 kg/m3
323.15 K, 32939 kPa | 1016.1 ± 1.2 kg/m3
323.15 K, 32977 kPa | 1016.1 ± 1.2 kg/m3
323.15 K, 33022 kPa | 1016.1 ± 1.2 kg/m3
323.15 K, 33058 kPa | 1016.2 ± 1.2 kg/m3
323.15 K, 33096 kPa | 1016.1 ± 1.2 kg/m3
323.15 K, 33141 kPa | 1016.2 ± 1.2 kg/m3
323.15 K, 33179 kPa | 1016.3 ± 1.2 kg/m3
323.15 K, 33224 kPa | 1016.3 ± 1.2 kg/m3
323.15 K, 33262 kPa | 1016.2 ± 1.2 kg/m3
323.15 K, 33300 kPa | 1016.2 ± 1.2 kg/m3
323.15 K, 33338 kPa | 1016.3 ± 1.2 kg/m3
323.15 K, 33384 kPa | 1016.4 ± 1.2 kg/m3
323.15 K, 33423 kPa | 1016.4 ± 1.2 kg/m3
323.15 K, 33462 kPa | 1016.3 ± 1.2 kg/m3
323.15 K, 33508 kPa | 1016.5 ± 1.2 kg/m3
323.15 K, 33546 kPa | 1016.4 ± 1.2 kg/m3
323.15 K, 33593 kPa | 1016.5 ± 1.2 kg/m3
323.15 K, 33633 kPa | 1016.5 ± 1.2 kg/m3
323.15 K, 33672 kPa | 1016.4 ± 1.2 kg/m3
323.15 K, 33712 kPa | 1016.4 ± 1.2 kg/m3
323.15 K, 33760 kPa | 1016.6 ± 1.2 kg/m3
323.15 K, 33800 kPa | 1016.5 ± 1.2 kg/m3
323.15 K, 33841 kPa | 1016.5 ± 1.2 kg/m3
323.15 K, 33890 kPa | 1016.6 ± 1.2 kg/m3
323.15 K, 33934 kPa | 1016.6 ± 1.2 kg/m3
323.15 K, 33978 kPa | 1016.7 ± 1.2 kg/m3
323.15 K, 34031 kPa | 1016.8 ± 1.2 kg/m3
323.15 K, 34078 kPa | 1016.7 ± 1.2 kg/m3
323.15 K, 34125 kPa | 1016.7 ± 1.2 kg/m3
323.15 K, 34165 kPa | 1016.8 ± 1.2 kg/m3
323.15 K, 34193 kPa | 1016.8 ± 1.2 kg/m3
323.15 K, 34215 kPa | 1016.8 ± 1.2 kg/m3
323.15 K, 34242 kPa | 1016.9 ± 1.2 kg/m3
323.15 K, 34266 kPa | 1016.9 ± 1.2 kg/m3
323.15 K, 34294 kPa | 1016.8 ± 1.2 kg/m3
323.15 K, 34311 kPa | 1016.8 ± 1.2 kg/m3
323.15 K, 34334 kPa | 1016.9 ± 1.2 kg/m3
323.15 K, 34359 kPa | 1017 ± 1.2 kg/m3
323.15 K, 34383 kPa | 1016.9 ± 1.2 kg/m3
323.15 K, 34414 kPa | 1017 ± 1.2 kg/m3
323.15 K, 34441 kPa | 1016.9 ± 1.2 kg/m3
323.15 K, 34467 kPa | 1016.9 ± 1.2 kg/m3
323.15 K, 34492 kPa | 1017 ± 1.2 kg/m3
323.15 K, 34493 kPa | 1017.1 ± 1.2 kg/m3
323.15 K, 34495 kPa | 1017 ± 1.2 kg/m3
323.15 K, 34498 kPa | 1017 ± 1.2 kg/m3
323.15 K, 34500 kPa | 1017.1 ± 1.2 kg/m3
323.15 K, 34502 kPa | 1017.1 ± 1.2 kg/m3
323.15 K, 34504 kPa | 1017.1 ± 1.2 kg/m3
323.15 K, 34507 kPa | 1017.1 ± 1.2 kg/m3
323.15 K, 34510 kPa | 1017 ± 1.2 kg/m3
343.14 K, 4331.4 kPa | 981.8 ± 1.2 kg/m3
343.14 K, 4369.7 kPa | 981.9 ± 1.2 kg/m3
343.14 K, 4403.1 kPa | 981.9 ± 1.2 kg/m3
343.14 K, 4438.3 kPa | 981.9 ± 1.2 kg/m3
343.14 K, 4480.3 kPa | 982 ± 1.2 kg/m3
343.14 K, 4516.3 kPa | 982 ± 1.2 kg/m3
343.14 K, 4553 kPa | 982.1 ± 1.2 kg/m3
343.14 K, 4648.1 kPa | 982.1 ± 1.2 kg/m3
343.14 K, 4649.8 kPa | 982.1 ± 1.2 kg/m3
343.14 K, 4651.7 kPa | 982.2 ± 1.2 kg/m3
343.14 K, 4656 kPa | 982.2 ± 1.2 kg/m3
343.14 K, 4659.5 kPa | 982 ± 1.2 kg/m3
343.14 K, 4659.7 kPa | 982.3 ± 1.2 kg/m3 and 982.2 ± 1.2 kg/m3
343.14 K, 4661.6 kPa | 982.1 ± 1.2 kg/m3
343.14 K, 4661.9 kPa | 982 ± 1.2 kg/m3
343.14 K, 4662.1 kPa | 982.1 ± 1.2 kg/m3 and 982 ± 1.2 kg/m3
343.14 K, 4662.3 kPa | 982.1 ± 1.2 kg/m3
343.14 K, 4662.4 kPa | 982.2 ± 1.2 kg/m3
343.14 K, 4662.6 kPa | 982.1 ± 1.2 kg/m3
343.14 K, 4662.8 kPa | 982.1 ± 1.2 kg/m3
343.14 K, 4663.1 kPa | 982.1 ± 1.2 kg/m3
343.14 K, 4671.9 kPa | 982.1 ± 1.2 kg/m3
343.14 K, 4688.2 kPa | 982 ± 1.2 kg/m3
343.14 K, 4712.1 kPa | 982.2 ± 1.2 kg/m3
343.14 K, 4732.7 kPa | 982.3 ± 1.2 kg/m3
343.14 K, 4774.6 kPa | 982.2 ± 1.2 kg/m3
343.14 K, 4799.7 kPa | 982.2 ± 1.2 kg/m3
343.14 K, 4821 kPa | 982.3 ± 1.2 kg/m3
343.14 K, 4842.3 kPa | 982.4 ± 1.2 kg/m3
343.14 K, 4868.4 kPa | 982.4 ± 1.2 kg/m3
343.14 K, 4886.2 kPa | 982.3 ± 1.2 kg/m3
343.14 K, 4912.7 kPa | 982.3 ± 1.2 kg/m3
343.14 K, 21139 kPa | 994 ± 1.2 kg/m3
343.14 K, 21166 kPa | 994 ± 1.2 kg/m3
343.14 K, 21194 kPa | 994.3 ± 1.2 kg/m3
343.14 K, 21221 kPa | 994 ± 1.2 kg/m3
343.14 K, 21398 kPa | 994.3 ± 1.2 kg/m3
343.14 K, 21431 kPa | 994.3 ± 1.2 kg/m3
343.14 K, 21460 kPa | 994.4 ± 1.2 kg/m3
343.14 K, 21488 kPa | 994.4 ± 1.2 kg/m3
343.14 K, 21522 kPa | 994.5 ± 1.2 kg/m3
343.14 K, 21550 kPa | 994.3 ± 1.2 kg/m3
343.14 K, 21578 kPa | 994.5 ± 1.2 kg/m3
343.14 K, 21611 kPa | 994.5 ± 1.2 kg/m3
343.14 K, 21640 kPa | 994.4 ± 1.2 kg/m3
343.14 K, 21669 kPa | 994.4 ± 1.2 kg/m3
343.14 K, 21702 kPa | 994.5 ± 1.2 kg/m3
343.14 K, 21732 kPa | 994.4 ± 1.2 kg/m3
343.14 K, 21760 kPa | 994.6 ± 1.2 kg/m3
343.14 K, 21795 kPa | 994.6 ± 1.2 kg/m3
343.14 K, 21825 kPa | 994.6 ± 1.2 kg/m3
343.14 K, 21856 kPa | 994.6 ± 1.2 kg/m3
343.14 K, 21885 kPa | 994.7 ± 1.2 kg/m3
343.14 K, 21920 kPa | 994.7 ± 1.2 kg/m3
343.14 K, 21949 kPa | 994.6 ± 1.2 kg/m3
343.14 K, 21979 kPa | 994.6 ± 1.2 kg/m3
343.14 K, 22008 kPa | 994.7 ± 1.2 kg/m3
343.14 K, 22044 kPa | 994.8 ± 1.2 kg/m3
343.14 K, 22073 kPa | 994.7 ± 1.2 kg/m3
343.14 K, 22109 kPa | 994.9 ± 1.2 kg/m3
343.14 K, 22139 kPa | 994.8 ± 1.2 kg/m3
343.14 K, 22169 kPa | 994.8 ± 1.2 kg/m3
